Assay results as given in patent US20200338084A1, “INHIBITORS OF LOW MOLECULAR WEIGHT PROTEIN TYROSINE PHOSPHATASE (LMPTP) AND USES THEREOF” (Sanford Burnham Prebys Medical Discovery Institute, priority 2018, published 2020).

Molecular target: T1, human LMPTP-A (Homo sapiens, UniProt P24666)
T1 sequence (P24666 1-158): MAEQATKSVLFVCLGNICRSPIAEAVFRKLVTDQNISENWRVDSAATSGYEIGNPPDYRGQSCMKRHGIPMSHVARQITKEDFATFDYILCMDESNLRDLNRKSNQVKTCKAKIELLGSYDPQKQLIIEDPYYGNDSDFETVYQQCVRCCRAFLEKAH
Assay: Enzyme Assay of Inhibition of LMPTP-A
Assay type: biochemical
Details: phosphatase assay, OMFP or pNPP substrate, 50 mM Bis-Tris pH 6.0, 37° C.
Method: Phosphatase assays were performed in buffer containing 50 mM Bis-Tris, pH 6.0, 1 mM DTT and 0.01% Triton X-100 at 37° C. For assays conducted with 3-O-methylfluorescein phosphate (OMFP) as substrate, fluorescence was monitored continuously at λex=485 and λem=525 nm. For assays conducted with para-nitrophenylphosphate (pNPP) as substrate, the reaction was stopped by addition of 2× reaction volume of 1 M NaOH, and absorbance was measured at 405 nm. IC50 values of compounds disclosed herein were determined from plots of inhibitor concentration versus percentage of enzyme activity. For inhibitor selectivity assays, each PTP was incubated with either 0.4 mM OMFP or 5 mM pNPP in the presence of 40 μM compound or DMSO. […] For the inhibitor reversibility assay, 50 nM human LMPTP-A was pre-incubated with 10 μM of compound disclosed herein or DMSO for 5 min. The enzyme was diluted 100× in phosphatase assay buffer containing 0.4 mM OMFP and fluorescence was measured at the indicated time points.

SMILES | IC50
CC(c1ccccc1)c1nc2c(N)ncn(Cc3c(Cl)cccc3Cl)c-2n1 (stereo not shown) [3-[(2,6-Dichlorophenyl)methyl]-8-(phenylethyl)-3-hydropurine-6-ylamine] | ≤ 1000 nM
Nc1ncn(Cc2c(Cl)cccc2Cl)c2nc(Cc3ccc(Br)cc3)nc1-2 [3-[(2,6-Dichlorophenyl)methyl]-8-[(4-bromophenyl)methyl]-3-hydropurine-6-ylamine] | ≤ 1000 nM
Nc1ncn(Cc2c(Cl)cccc2Cl)c2nc(Br)nc1-2 [3-[(2,6-Dichlorophenyl)methyl]-8-bromo-3-hydropurine-6-ylamine] | 1000 to 20000 nM
Nc1ncn(Cc2c(Cl)cccc2Cl)c2nc(C3=CCCCC3)nc1-2 [3-[(2,6-Dichlorophenyl)methyl]-8-cyclohex-1-enyl-3-hydropurine-6-ylamine] | ≤ 1000 nM
Nc1ncn(Cc2c(Cl)cccc2Cl)c2nc(C3CCCCC3)nc1-2 [3-[(2,6-Dichlorophenyl)methyl]-8-cyclohexyl-3-hydropurine-6-ylamine] | ≤ 1000 nM
CCCCCCc1nc2c(N)ncn(Cc3c(Cl)cccc3Cl)c-2n1 [3-[(2,6-Dichlorophenyl)methyl]-8-hexyl-3-hydropurine-6-ylamine] | ≤ 1000 nM
Nc1ncn(Cc2c(Cl)cccc2Cl)c2nc(-c3cc[nH]n3)nc1-2 [3-[(2,6-Dichlorophenyl)methyl]-8-pyrazol-5-yl-3-hydropurine-6-ylamine] | ≥ 20000 nM
Nc1ncn(Cc2c(Cl)cccc2Cl)c2nc(C(F)(F)C(F)(F)F)nc1-2 [3-[(2,6-dichlorophenyl)methyl]-8-(1,1,2,2,2-pentafluoroethyl)-3-hydropurine-6-ylamine] | ≥ 20000 nM
Nc1ncn(Cc2c(Cl)cccc2Cl)c2nc(-c3ccc(F)c(F)c3F)nc1-2 [3-[(2,6-dichlorophenyl)methyl]-8-(2,3,4-trifluorophenyl)-3-hydropurine-6-ylamine] | ≤ 1000 nM
Nc1ncn(Cc2c(Cl)cccc2Cl)c2nc(-c3cccc(F)c3F)nc1-2 [3-[(2,6-dichlorophenyl)methyl]-8-(2,3-difluorophenyl)-3-hydropurine-6-ylamine] | ≤ 1000 nM
Nc1ncn(Cc2c(Cl)cccc2Cl)c2nc(-c3ccc(F)c(F)c3)nc1-2 [3-[(2,6-dichlorophenyl)methyl]-8-(3,4-difluorophenyl)-3-hydropurine-6-ylamine] | ≤ 1000 nM
Nc1ncn(Cc2c(Cl)cccc2Cl)c2nc(CCc3ccc(F)cc3)nc1-2 [3-[(2,6-dichlorophenyl)methyl]-8-[2-(4-fluorophenyl)ethyl]-3-hydropurine-6-ylamine] | ≤ 1000 nM
Nc1ncn(Cc2c(Cl)cccc2Cl)c2nc(COc3ccc(Br)cc3)nc1-2 [3-[(2,6-dichlorophenyl)methyl]-8-[(4-bromophenoxy)methyl]-3-hydropurine-6-ylamine] | ≤ 1000 nM
Nc1ncn(Cc2c(Cl)cccc2Cl)c2nc(Cc3ccc(F)cc3)nc1-2 [3-[(2,6-dichlorophenyl)methyl]-8-[(4-fluorophenyl)methyl]-3-hydropurine-6-ylamine] | ≤ 1000 nM
COc1ccc(Cc2nc3c(N)ncn(Cc4c(Cl)cccc4Cl)c-3n2)cc1 [3-[(2,6-dichlorophenyl)methyl]-8-[(4-methoxyphenyl)methyl]-3-hydropurine-6-ylamine] | ≤ 1000 nM
Nc1ncn(Cc2c(Cl)cccc2Cl)c2nc(Cc3ccc(C(F)(F)F)cc3)nc1-2 [3-[(2,6-dichlorophenyl)methyl]-8-{[4-(trifluoromethyl)phenyl]methyl}-3-hydropurine-6-ylamine] | ≤ 1000 nM
Nc1ncn(Cc2c(Cl)cncc2Cl)c2nc(-c3ccccc3)nc1-2 [3-[(3,5-Dichloro(4-pyridyl))methyl]-8-phenyl-3-hydropurine-6-ylamine] | ≤ 1000 nM
Nc1ncn(Cc2c(Br)cncc2Br)c2ncnc1-2 [3-[(3,5-dibromo-4-pyridyl)methyl]-3-hydropurine-6-ylamine] | ≤ 1000 nM
Cn1ncc(Br)c1Cn1cnc(N)c2ncnc1-2 [3-[(4-bromo-1-methylpyrazol-5-yl)methyl]-3-hydropurine-6-ylamine] | ≤ 1000 nM
Nc1ncn(Cc2c(Cl)ccnc2F)c2ncnc1-2 [3-[(4-chloro-2-fluoro-3-pyridyl)methyl]-3-hydropurine-6-ylamine] | 1000 to 20000 nM
Nc1ncn(Cc2ccccc2)c2ncnc1-2 [3-benzyl-3-hydropurine-6-ylamine, 3-Benzyl-3-hydropurine-6-ylamine] | 1000 to 20000 nM
N#Cc1cccc(-c2nc3c(N)ncn(Cc4c(Cl)cccc4Cl)c-3n2)c1 [3-{6-Amino-3-[(2,6-dichlorophenyl)methyl]-3-hydropurin-8-yl}benzenecarbonitrile] | ≤ 1000 nM
N#Cc1ccc(Cn2cnc(N)c3ncnc2-3)cc1 [4-((6-amino-3H-purin-3-yl)methyl)benzonitrile] | 1000 to 20000 nM
N#Cc1ccc(Nc2ncn(Cc3c(Cl)cccc3Cl)c3ncnc2-3)cc1 [4-({3-[(2,6-Dichlorophenyl)methyl]-3-hydropurin-6-yl}amino)benzenecarbonitrile] | 1000 to 20000 nM
O=C(O)c1ccc(Nc2ncn(Cc3c(Cl)cccc3Cl)c3ncnc2-3)cc1 [4-({3-[(2,6-Dichlorophenyl)methyl]-3-hydropurin-6-yl}amino)benzoic acid] | 1000 to 20000 nM
Oc1ccc(Nc2ncn(Cc3c(Cl)cccc3Cl)c3ncnc2-3)cc1 [4-({3-[(2,6-Dichlorophenyl)methyl]-3-hydropurin-6-yl}amino)phenol] | 1000 to 20000 nM
N#Cc1ccc(CNc2ncn(Cc3c(Cl)cccc3Cl)c3ncnc2-3)cc1 [4-[({3-[(2,6-dichlorophenyl)methyl]-3-hydropurin-6-yl}amino)methyl]benzenecarbonitrile] | 1000 to 20000 nM
N#Cc1ccc(Cn2cnc(NCc3ccco3)c3ncnc2-3)cc1 [4-{6-[(Furan-2-ylmethyl)-amino]-purin-3-ylmethyl}-benzonitrile] | ≥ 20000 nM

Results, then the compound that gave them:

IC50 | SMILES
≤ 1000 nM | Nc1ncn(Cc2c(Cl)cccc2Cl)c2nc(Cc3ccccc3)nc1-2 [3-[(2,6-Dichlorophenyl)methyl]-8-benzyl-3-hydropurine-6-ylamine]
≥ 20000 nM | Nc1ncn(Cc2c(Cl)cccc2Cl)c2nc(Cl)nc1-2 [3-[(2,6-Dichlorophenyl)methyl]-8-chloro-3-hydropurine-6-ylamine]
≤ 1000 nM | Nc1ncn(Cc2c(Cl)cccc2Cl)c2nc(C3CCC3)nc1-2 [3-[(2,6-Dichlorophenyl)methyl]-8-cyclobutyl-3-hydropurine-6-ylamine]
≤ 1000 nM | Cc1nc2c(N)ncn(Cc3c(Cl)cccc3Cl)c-2n1 [3-[(2,6-Dichlorophenyl)methyl]-8-methyl-3-hydropurine-6-ylamine]
≤ 1000 nM | Nc1ncn(Cc2c(Cl)cccc2Cl)c2nc(-c3ccccc3)nc1-2 [3-[(2,6-Dichlorophenyl)methyl]-8-phenyl-3-hydropurine-6-ylamine]
≤ 1000 nM | CCCc1nc2c(N)ncn(Cc3c(Cl)cccc3Cl)c-2n1 [3-[(2,6-Dichlorophenyl)methyl]-8-propyl-3-hydropurine-6-ylamine]
≤ 1000 nM | Nc1ncn(Cc2c(Cl)cccc2Cl)c2nc(-c3ccc[nH]3)nc1-2 [3-[(2,6-Dichlorophenyl)methyl]-8-pyrrol-2-yl-3-hydropurine-6-ylamine]
≤ 1000 nM | Nc1ncn(Cc2c(Cl)cccc2Cl)c2nc(-c3cc(F)c(F)cc3F)nc1-2 [3-[(2,6-dichlorophenyl)methyl]-8-(2,4,5-trifluorophenyl)-3-hydropurine-6-ylamine]
≤ 1000 nM | Nc1ncn(Cc2c(Cl)cccc2Cl)c2nc(-c3ccc(F)cc3F)nc1-2 [3-[(2,6-dichlorophenyl)methyl]-8-(2,4-difluorophenyl)-3-hydropurine-6-ylamine]
≤ 1000 nM | Nc1ncn(Cc2c(Cl)cccc2Cl)c2nc(-c3c(F)cccc3F)nc1-2 [3-[(2,6-dichlorophenyl)methyl]-8-(2,6-difluorophenyl)-3-hydropurine-6-ylamine]
1000 to 20000 nM | Nc1ncn(Cc2c(Cl)cccc2Cl)c2nc(C(F)F)nc1-2 [3-[(2,6-dichlorophenyl)methyl]-8-(difluoromethyl)-3-hydropurine-6-ylamine]
≤ 1000 nM | Cc1ccccc1Cc1nc2c(N)ncn(Cc3c(Cl)cccc3Cl)c-2n1 [3-[(2,6-dichlorophenyl)methyl]-8-[(2-methylphenyl)methyl]-3-hydropurine-6-ylamine]
1000 to 20000 nM | Nc1ncn(Cc2ccncc2Cl)c2ncnc1-2 [3-[(3-chloro-4-pyridyl)methyl]-3-hydropurine-6-ylamine]
1000 to 20000 nM | Nc1ncn(Cc2c(Br)ccnc2Cl)c2ncnc1-2 [3-[(4-bromo-2-chloro-3-pyridyl)methyl]-3-hydropurine-6-ylamine]
1000 to 20000 nM | CN(C)C(=O)c1ccc(Nc2ncn(Cc3c(Cl)cccc3Cl)c3ncnc2-3)cc1 [4-((3-(2,6-Dichlorobenzyl)-3H-purin-6-yl)amino)-N,N-dimethylbenzamide]
≤ 1000 nM | N#Cc1ccc(-c2nc3c(N)ncn(Cc4c(Cl)cccc4Cl)c-3n2)cc1 [4-{6-Amino-3-[(2,6-dichlorophenyl)methyl]-3-hydropurin-8-yl}benzenecarbonitrile]
≤ 1000 nM | Nc1ncn(Cc2c(Cl)cccc2Cl)c2nc(C3CCS(=O)(=O)CC3)nc1-2 [4-{6-Amino-3-[(2,6-dichlorophenyl)methyl]-3-hydropurin-8-yl}thiane-1,1-dione]
≤ 1000 nM | N#Cc1ccc(-c2nc3c(N)ncn(Cc4c(Cl)cccc4Cl)c-3n2)s1 [5-(6-amino-3-(2,6-dichlorobenzyl)-3H-purin-8-yl)thiophene-2-carbonitrile]
